Tested on: mutant strain CJR0500
Experiment: Flask fermentation with tryptophan added to fermentation medium
Type: cell-based, Corynebacterium glutamicum
Settings: 50 mg/L tryptophan in fermentation medium, 30° C., 64 hrs, shaking

In the case of `N[C@@H](Cc1c[nH]c2ccccc12)C(=O)O` [Tryptophan, L-tryptophan], the “Effect of tryptophan addition on growth” value is reported as “stimulate the growth”.

— patent US8034602B2 (priority 2006, dated 2011)
